According to US8637556B2, “Linked Myc-max small molecule inhibitors” (University of Pittsburgh—Of the Commonwealth System of …, priority 2009, dated 2014):
Like-named read-outs stand apart in the source and are kept apart here. One block for each compound: values may come before it.

Experiments:
[1] = tested on: Daudi Burkitt lymphoma cells; experiment: Burkitt's lymphoma cell growth inhibition (MTT assay); format: cell-based; details: Homo sapiens, Table 3, MTT, third day, read-out: Growth inhibition BL
Protocol: (§1) These assays were performed as previously described using HL60 promyelocytic leukemia cells and Daudi Burkitt lymphoma cells, each of which expresses high levels of endogenous c-Myc (Wang, H. et al. Mol. Cancer Ther. 6, 2399-408 (2007)). As controls for non-specific effects of bivalent compounds, we utilized a c-Myc nulllizygous strain of rat fibroblasts (Mateyak, M. K., et al. Cell Growth & Differentiation 8, 1039-48 (1997)) expressing the c-Myc target genes MT-MC1 and HMGAIb, each of which restores a normal growth rate as well as the TGR1 fibroblast line from which the nullizygous line was derived (Wang, H. et al. Mol. Cancer Ther. 6, 2399-408 (2007); Mateyak, M. K., et al. Cell Growth & Differentiation 8, 1039-48 (1997); and Rothermund, K. et al. Cancer Research 65, 2097-107 (2005)). […] Cell quantification was performed on triplicate wells over the ensuing 4-5 days without changing the medium by measuring the absorbance at 490 nm using the MTT assay (Mosmann, T. Journal of Immunological Methods 65, 55-63 (1983)). IC50 values were estimated from linear regression of the inhibition data at the third day of each experiment.
(§2) We evaluated the efficacy of the linked compounds 11, 12, 13, 16, 17, 18 in inhibiting the c-Myc-Max interaction by measuring the binding of a target DNA sequence (E-Box) by the protein heterodimers in an electrophoretic mobility shift assay (EMSA). […] A fluorinated substitute of 14, 24, the choice of which was based upon the results of structure activity relationship studies described in Wang, H. et al. (Mol. Cancer Ther. 6, 2399-408 (2007)), was employed at this purpose (Muller, K., et al. Science 317, 1881-6 (2007) and Kirk, K. L. Current Topics in Medicinal Chemistry 6, 1447-56 (2006)).

[2] = tested on: HL60 promyelocytic leukemia cells; experiment: HL60 cell growth inhibition (MTT assay); format: cell-based; details: Homo sapiens, HL-60; Table 3; MTT, third day; read-out: Growth inhibition HL60
Protocol: as §1, §2

[3] = biological target: T1, c-Myc353-437 (monomeric c-Myc bHLH-ZIP) (Homo sapiens, UniProt P01106); experiment: Fluorescence polarization titration, c-Myc bHLH-ZIP binding; details: for c-Myc binding affinity (in words): FP; for Kd: Table 1
T1 construct: recombinant monomeric c Myc bHLH-ZIP (amino acids 353-437); 6xHis with TEV site (N, cleaved yes); made in house; host or cells: E. coli BL21DE3(pLysS)
Description: A c-Myc353-437 full-length bHLH-ZIP domain and its truncated version c-Myc390-439 were produced from the c-Myc/pET SKB3 construct, kindly supplied by Dr. S. K. Nair (University of Illinois, Urbana-Champaign), by insertion into the pET151D vector, encoding an N-terminal hexahistidine (6× His), separated by a TEV protease digestion site, with the TOPO® ligation system, and over-expressed in E. coli BL21DE3(pLysS). The 6× His tagged human Max isoform p21, with low homodimerization affinity^70, cloned into the pQE10 vector (Qiagen, Inc.), was over-expressed in E. coli M15(pRep4). Bacterial cultures were grown at 37° C. in LB medium to OD600≈0.8, then induced with 0.5 mM IPTG for 5 hours. Proteins were purified by Ni-agarose chromatography with a pH gradient elution. The 6× His tag of c-MYC353-437 and c-Myc390-439 was cleaved using TEV protease (the TEV protease was expressed in a pET24 vector [courtesy of S. K. Nair] and purified by Ni-agarose chromatography under native conditions). All the proteins were further purified by HPLC and lyophilized. Protein concentrations were determined by measurement of OD280. The synthetic peptide c-Myc363-381 is described in Follis, A. V., Hammoudeh, D. I., Wang, H., Prochownik, E & Metallo, S. J. Structural rationale for the coupled binding and unfolding of the c-Myc oncoprotein by small molecules. Chemistry & Biology 15, 1149-1155 (2008).
Samples were analyzed in a Photon Technology International QuantaMaster fluorimeter (Birmingham, N.J.) equipped with polymer sheet polarizers. Titration experiments were performed upon serial dilution of 1:1 equimolar solution of inhibitor and either c-Myc353-437, c-Myc390-439 or c-Myc363-381 in a 1×PBS buffer (137 mM NaCl, 2.7 mM KCl, 4.3 mM Na2HPO4, 1.4 mM KH2PO4, pH=7.4), 5% DMSO, over concentrations ranging between 200 μM and 1.5 nM. Excitation and emission wavelengths were independently determined for each inhibitor. Reported data represent the average of at least three independent experiments. Data were fit to a quadratic equation derived from the thermodynamic expression of binding equilibrium:
[formula] where [C]0 represents the total concentration of inhibitor and of c-Myc peptide. The value of KD was determined from the experimental polarization data by fitting to Eq. 2 using KaleidaGraph (Synergy Software, Reading, Pa.) where pol0 is the polarization in the absence of binding and Δpol is the total change in polarization (Park, S. H. & Raines, R. T. Fluorescence polarization assay to quantify protein-protein interactions. Methods in Molecular Biology 261, 161-6 (2004)).
[formula] Due to the very tight binding of some of the tested compounds, it was impossible to perform a full binding titration with an acceptable fluorescence intensity, therefore the polo parameter was experimentally determined from samples of each compound in the absence of c-Myc353-437 at a concentration of 25 μM. Binding specificity experiments were performed by monitoring the FP of 10 μM inhibitors solutions in the above-described buffer in the presence of equimolar p21 Max. […] Circular Dichroism.
Also in this case the c-Myc binding affinity was little affected by the introduction of the linker chain (Table 1, FIG. 11).
We then measured the affinity of the synthesized bivalent inhibitors, by monitoring the FP of the compounds nitrobenzofurazan moiety. […] The estimated free energy of binding of the bivalent compounds was roughly proportional to the sum of those of their monovalent components. In the thermodynamic analysis of multivalent binding a ΔG^s term is used to relate the free energy of binding of a multivalent compound to the sum of those of its monovalent components. This term implies the diverse energy contributions resulting from the linking of independent binding components. The ΔG^s term generally constitutes a negative contribution to the binding affinity of distinct binding components connected by a flexible linker to a given target.

[4] = FP titration with c-Myc353-437, 1xPBS pH 7.4, 5% DMSO, read-out: KD (c-Myc affinity, monovalent)

T1 sequence (P01106 368-452): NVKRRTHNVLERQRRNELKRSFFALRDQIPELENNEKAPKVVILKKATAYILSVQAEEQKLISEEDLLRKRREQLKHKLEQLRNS

Compound: CCc1ccc(C=C2SC(=S)NC2=O)cc1 [compound 2, (Z,E)-5-(4-ethyl-benzylidene)-2-thioxo-thiazolidin-4-one, reference compound]
IC50 [1]: 40 µM
IC50 [2]: 50 µM

Compound: CN(C)c1ccc([N+](=O)[O-])c2nonc12 [compound 4]
c-Myc binding affinity (in words) [3]: complete loss of binding affinity
Kd [3, 4]: > 200 µM

Compound: O=C(O)c1ccccc1Nc1ccc([N+](=O)[O-])c2nonc12 [compound 5]
Kd [3, 4]: 13 ± 5 µM

Compound: O=C(O)c1cccc(Nc2ccc([N+](=O)[O-])c3nonc23)c1 [compound 6]
Kd [3, 4]: 16 ± 6 µM

Compound: O=C(O)c1ccc(Nc2ccc([N+](=O)[O-])c3nonc23)cc1 [compound 7]
Kd [3, 4]: 3 ± 1 µM
c-Myc binding, times tighter than 5 and 6 ([3]; relative to compounds 5 and 6): ~5 times

Next, values leading:

c-Myc binding affinity (in words) [3]: minor loss of c-Myc affinity
Kd [3, 4]: 7 ± 1 µM
Compound: O=[N+]([O-])c1ccc(Nc2ccccc2)c2nonc12 [compound 3]

Kd [3, 4]: 90 ± 40 µM
Compound: CC(=O)NCCCCCNC(=O)c1ccc(C=C2SC(=S)NC2=O)cc1 [compound 10]

Kd ([3]; FP of nitrobenzofurazan moiety, c-Myc353-437, read-out: KD (c-Myc affinity, bivalent)): 0.004 ± 0.001 µM
IC50 [1]: 14 to 16 µM
IC50 [2]: 7 to 9 µM
Compound: CCc1ccc(C=C2SC(=O)N(CCCCNC(=O)c3ccc(Nc4ccc([N+](=O)[O-])c5nonc45)cc3)C2=O)cc1 [compound 21]
